Test results reported in ChEMBL document CHEMBL3217577, “Recent applications of multicomponent reactions in medicinal chemistry” (Medchemcomm, 2012).
pIC50, pKd, pKi: −log10 of the molar value. ≈ marks a conversion by molar mass, not a printed value.

Tests used:
[1] = target: Glycogen synthase kinase-3 beta (Mus musculus, UniProt Q9WV60); test: Inhibition of recombinant mouse GSK3beta expressed in COS-1 cells by luciferase reporter gene assay; format: cell-based
[2] = target: T1, Tumour suppressor p53/oncoprotein Mdm2 (Homo sapiens, UniProt Q00987); test: Competitive inhibition of recombinant human Mdm2 (aa 1 to 118)-p53 ( 1 to 321) interaction; format: protein assay
T1 sequence (P04637 whole entry, the tested form may be a part): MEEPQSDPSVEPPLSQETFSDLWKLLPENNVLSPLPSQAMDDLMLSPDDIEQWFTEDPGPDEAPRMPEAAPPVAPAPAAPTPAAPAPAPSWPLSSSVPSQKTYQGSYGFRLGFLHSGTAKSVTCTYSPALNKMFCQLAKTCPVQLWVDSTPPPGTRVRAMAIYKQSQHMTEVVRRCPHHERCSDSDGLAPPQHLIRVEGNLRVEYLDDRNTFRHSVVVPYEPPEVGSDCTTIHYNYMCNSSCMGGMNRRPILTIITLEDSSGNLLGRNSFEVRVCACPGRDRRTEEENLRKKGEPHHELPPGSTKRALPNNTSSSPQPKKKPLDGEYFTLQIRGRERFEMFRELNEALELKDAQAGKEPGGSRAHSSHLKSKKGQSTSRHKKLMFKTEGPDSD
T1 sequence (Q00987 whole entry, the tested form may be a part): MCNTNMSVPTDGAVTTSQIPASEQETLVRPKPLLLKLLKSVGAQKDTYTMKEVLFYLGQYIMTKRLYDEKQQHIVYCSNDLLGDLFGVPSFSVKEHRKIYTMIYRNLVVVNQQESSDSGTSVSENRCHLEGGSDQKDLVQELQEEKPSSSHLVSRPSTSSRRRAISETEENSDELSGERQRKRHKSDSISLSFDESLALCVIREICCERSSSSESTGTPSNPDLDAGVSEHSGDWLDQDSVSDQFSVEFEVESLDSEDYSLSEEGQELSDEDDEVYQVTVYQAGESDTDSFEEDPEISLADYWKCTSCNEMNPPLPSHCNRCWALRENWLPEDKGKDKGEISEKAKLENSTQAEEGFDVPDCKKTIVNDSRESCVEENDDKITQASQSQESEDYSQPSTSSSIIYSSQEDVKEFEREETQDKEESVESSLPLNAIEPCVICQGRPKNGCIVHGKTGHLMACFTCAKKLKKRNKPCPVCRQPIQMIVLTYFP

Prolyl endopeptidase = target: T2, Prolyl endopeptidase (Homo sapiens, UniProt P48147); test: Inhibition of purified prolyl oligopeptidase (unknown origin) after 1 hr by spectrophotometry
T2 sequence (P48147 whole entry): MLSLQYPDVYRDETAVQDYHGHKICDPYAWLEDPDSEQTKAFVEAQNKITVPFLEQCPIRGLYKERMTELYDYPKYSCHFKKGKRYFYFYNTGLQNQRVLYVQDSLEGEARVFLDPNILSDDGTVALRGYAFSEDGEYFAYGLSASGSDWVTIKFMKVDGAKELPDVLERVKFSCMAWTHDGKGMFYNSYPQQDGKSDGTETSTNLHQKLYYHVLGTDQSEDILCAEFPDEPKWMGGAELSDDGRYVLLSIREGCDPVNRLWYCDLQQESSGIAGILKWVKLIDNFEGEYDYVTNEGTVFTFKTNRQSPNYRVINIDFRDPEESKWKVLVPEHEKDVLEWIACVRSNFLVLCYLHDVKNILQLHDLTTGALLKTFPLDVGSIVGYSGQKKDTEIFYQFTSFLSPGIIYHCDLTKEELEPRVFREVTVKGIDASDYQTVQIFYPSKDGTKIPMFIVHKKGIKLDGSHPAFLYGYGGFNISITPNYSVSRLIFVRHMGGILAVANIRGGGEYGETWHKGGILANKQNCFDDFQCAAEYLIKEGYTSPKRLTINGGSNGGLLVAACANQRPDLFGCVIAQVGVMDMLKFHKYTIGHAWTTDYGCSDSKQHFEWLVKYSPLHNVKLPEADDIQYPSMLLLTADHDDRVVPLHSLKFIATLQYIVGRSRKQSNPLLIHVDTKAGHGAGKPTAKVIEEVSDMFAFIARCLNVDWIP

[3] = target: Mitogen-activated protein kinase 14 (Homo sapiens, UniProt Q16539); test: Inhibition of p38 alpha MAP kinase (unknown origin)
Mitogen-activated protein kinase 14, sequence (Q16539 whole entry): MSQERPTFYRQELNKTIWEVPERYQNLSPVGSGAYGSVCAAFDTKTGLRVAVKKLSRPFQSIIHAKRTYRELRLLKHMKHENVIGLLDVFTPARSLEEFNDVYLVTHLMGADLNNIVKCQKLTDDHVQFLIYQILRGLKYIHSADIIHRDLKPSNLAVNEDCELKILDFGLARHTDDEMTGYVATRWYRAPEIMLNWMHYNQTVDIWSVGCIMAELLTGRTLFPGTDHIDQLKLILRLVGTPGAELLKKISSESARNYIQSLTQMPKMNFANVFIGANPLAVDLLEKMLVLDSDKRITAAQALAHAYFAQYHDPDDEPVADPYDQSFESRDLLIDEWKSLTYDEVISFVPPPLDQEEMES

MCF7 = test: Antiproliferative activity against human MCF7 cells; format: functional, cell-based
Plasmodium falciparum [4] = test: Antiparasitic activity against chloroquine-resistant Plasmodium falciparum; format: functional, organism-based
Plasmodium falciparum [5] = test: Ratio of chloroquine IC50 to compound IC50 for chloroquine-resistant Plasmodium falciparum; format: functional
[6] = target: T3, Tyrosine-protein phosphatase non-receptor type 1 (Homo sapiens, UniProt P18031); test: Inhibition of PTP1B (unknown origin)
T3 sequence (P18031 whole entry): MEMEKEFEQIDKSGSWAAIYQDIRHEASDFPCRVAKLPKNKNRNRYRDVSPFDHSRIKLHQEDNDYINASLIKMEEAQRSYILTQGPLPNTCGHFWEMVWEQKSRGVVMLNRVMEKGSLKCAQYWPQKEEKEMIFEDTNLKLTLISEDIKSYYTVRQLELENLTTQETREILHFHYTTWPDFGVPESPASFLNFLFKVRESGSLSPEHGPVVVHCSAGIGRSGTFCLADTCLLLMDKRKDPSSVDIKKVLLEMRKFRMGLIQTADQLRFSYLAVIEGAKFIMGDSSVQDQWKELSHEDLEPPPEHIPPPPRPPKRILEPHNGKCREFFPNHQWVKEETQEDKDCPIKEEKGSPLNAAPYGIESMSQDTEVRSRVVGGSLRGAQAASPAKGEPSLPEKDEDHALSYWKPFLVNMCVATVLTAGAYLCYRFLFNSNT

[7] = target: T4, M-phase inducer phosphatase 2 (Homo sapiens, UniProt P30305); test: Inhibition of CDC25B (unknown origin)
T4 sequence (P30305 whole entry): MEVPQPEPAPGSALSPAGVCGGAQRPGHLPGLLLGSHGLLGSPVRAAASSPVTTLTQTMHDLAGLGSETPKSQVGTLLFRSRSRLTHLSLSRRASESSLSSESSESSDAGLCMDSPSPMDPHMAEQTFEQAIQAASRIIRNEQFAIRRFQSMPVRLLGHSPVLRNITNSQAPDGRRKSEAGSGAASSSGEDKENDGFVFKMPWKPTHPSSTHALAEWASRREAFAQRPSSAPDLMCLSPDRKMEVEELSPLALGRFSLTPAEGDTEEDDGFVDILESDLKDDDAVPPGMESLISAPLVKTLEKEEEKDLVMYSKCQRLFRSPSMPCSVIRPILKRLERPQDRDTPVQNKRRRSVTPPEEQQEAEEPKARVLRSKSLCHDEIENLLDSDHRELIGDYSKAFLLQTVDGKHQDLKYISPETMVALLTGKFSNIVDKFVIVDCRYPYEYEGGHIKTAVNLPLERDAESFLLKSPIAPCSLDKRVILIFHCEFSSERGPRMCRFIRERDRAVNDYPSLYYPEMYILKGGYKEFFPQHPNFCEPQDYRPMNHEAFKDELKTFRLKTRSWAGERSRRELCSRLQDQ

[8] = target: T5, Tyrosine-protein phosphatase non-receptor type 2 (Homo sapiens, UniProt P17706); test: Inhibition of TC-PTP (unknown origin)
T5 sequence (P17706 whole entry): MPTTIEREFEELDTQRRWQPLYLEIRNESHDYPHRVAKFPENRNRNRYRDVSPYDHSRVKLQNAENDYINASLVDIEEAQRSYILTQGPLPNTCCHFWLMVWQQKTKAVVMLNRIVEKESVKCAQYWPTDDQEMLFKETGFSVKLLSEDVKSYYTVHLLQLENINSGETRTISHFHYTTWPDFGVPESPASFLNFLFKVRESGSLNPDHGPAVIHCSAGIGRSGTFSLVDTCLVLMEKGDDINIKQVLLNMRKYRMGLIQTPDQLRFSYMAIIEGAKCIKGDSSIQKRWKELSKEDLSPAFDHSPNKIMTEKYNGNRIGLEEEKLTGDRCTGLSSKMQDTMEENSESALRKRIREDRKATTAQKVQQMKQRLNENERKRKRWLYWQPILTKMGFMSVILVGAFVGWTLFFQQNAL

Aurora kinase A = target: T6, Aurora kinase A (Homo sapiens, UniProt O14965); test: Inhibition of Aurora A kinase (unknown origin)
T6 sequence (O14965 whole entry): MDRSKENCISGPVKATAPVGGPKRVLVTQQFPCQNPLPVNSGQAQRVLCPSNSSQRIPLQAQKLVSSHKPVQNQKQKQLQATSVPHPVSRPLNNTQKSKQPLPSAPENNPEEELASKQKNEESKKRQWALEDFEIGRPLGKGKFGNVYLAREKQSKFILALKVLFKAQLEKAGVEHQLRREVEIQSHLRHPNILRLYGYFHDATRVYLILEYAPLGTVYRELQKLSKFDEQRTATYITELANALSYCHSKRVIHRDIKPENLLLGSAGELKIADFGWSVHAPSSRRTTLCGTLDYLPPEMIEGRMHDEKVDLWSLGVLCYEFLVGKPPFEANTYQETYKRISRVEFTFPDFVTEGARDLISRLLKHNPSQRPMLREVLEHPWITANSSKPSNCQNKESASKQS

[9] = Inhibition of Mycobacterium tuberculosis protein tyrosine phosphatase B
Plasmodium falciparum [10] = test: Antiparasitic activity against chloroquine-resistant Plasmodium falciparum assessed as inhibition of parasite survival; format: functional, organism-based
HeLa = test: Antiproliferative activity against human HeLa cells; format: functional
[11] = target: T1, Tumour suppressor p53/oncoprotein Mdm2; test: Inhibition of Mdm2-p53 interaction in human PA-1 cells; format: cell-based
[12] = target: T7, E3 ubiquitin-protein ligase Mdm2 (Homo sapiens, UniProt Q00987); test: Binding affinity to HDM2 ( unknown origin) by NMR analysis
T7 sequence (Q00987 whole entry): as the sequence (Q00987 whole entry, the tested form may be a part) above

[13] = target: T7, E3 ubiquitin-protein ligase Mdm2; test: Inhibition of Mdm2 in p53-deficient human PA-1 cells; format: cell-based
Trypanosoma cruzi = test: Antiparasitic activity against epimastigote stage of Trypanosoma cruzi assessed as growth inhibition at 50 uM; format: functional
PC-3 = test: Cytotoxicity against human PC3 cells; format: functional
HT-29 = test: Cytotoxicity against human HT-29 cells; format: functional
[14] = system: Mycobacterium tuberculosis; test: Antibacterial activity against Mycobacterium tuberculosis H37Ra; format: functional

Glycogen synthase kinase-3 beta, sequence (Q9WV60 whole entry, the tested form may be a part): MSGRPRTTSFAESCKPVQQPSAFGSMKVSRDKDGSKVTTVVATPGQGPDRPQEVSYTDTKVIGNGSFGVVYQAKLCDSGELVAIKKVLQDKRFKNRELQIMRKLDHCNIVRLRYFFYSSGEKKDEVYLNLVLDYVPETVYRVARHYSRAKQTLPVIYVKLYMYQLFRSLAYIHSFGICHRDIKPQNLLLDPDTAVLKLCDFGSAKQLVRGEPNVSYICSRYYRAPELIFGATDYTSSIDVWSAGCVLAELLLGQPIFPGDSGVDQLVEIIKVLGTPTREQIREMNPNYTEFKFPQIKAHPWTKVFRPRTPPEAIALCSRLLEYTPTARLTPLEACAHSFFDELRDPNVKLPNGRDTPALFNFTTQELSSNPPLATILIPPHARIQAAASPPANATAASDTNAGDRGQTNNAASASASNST

c1cnc2nc(-c3ccc4[nH]ncc4c3)c(NC3CCCCC3)n2c1
pKi [1]: 8.00

O=C(NCc1ccccc1)C1C(=O)Nc2sc3c(c2C(=O)N1Cc1ccc(Cl)cc1)CCCC3 (stereo not given)
pKi [2]: 4.40

CCOC(=O)c1ccc2c(c1)c1c(c(-c3cccc4ccccc34)[n+]2C)CCO1
pIC50 (Prolyl endopeptidase): 4.12

Cc1ccoc1-c1cc(-c2ccc(Br)cc2)[nH]c(=N)c1C#N
pIC50 [3]: 7.15

CC1(C)CC(=O)C2=C(C1)Oc1ccc3ccccc3c1C2c1ccc(O)cc1 (stereo not given)
IC50 (MCF7): 6.7 µg/mL (≈ 18.1 µM)

CC1(C(=O)NC2CCCCC2)CCCC(=O)N1CCCCCNc1ccnc2cc(Cl)ccc12 (stereo not given)
pIC50 (Plasmodium falciparum [4]): 7.02

N#Cc1c(-c2ccc(Cl)c(Cl)c2)cc(-c2ccc(Br)cc2)nc1N
pIC50 [3]: 6.92

COC(=O)C1=C(C)N(C)C(=O)N(C(=O)NCCCCNc2ccnc3cc(Cl)ccc23)C1c1ccc(OC)cc1 (stereo not given)
Ratio IC50 (Plasmodium falciparum [5]): 200 | pIC50 (Plasmodium falciparum [4]): 8.40

COC(c1ccc(C)cc1)c1cnn2c(-c3ccccc3)cc3c(Cl)cccc3c12 (stereo not given)
pIC50 [6]: 6.00 | pIC50 [7]: 5.66 | pIC50 [8]: 5.35 | pIC50 (Aurora kinase A): 4.87

COc1ccc(NN2[C@@H]([C@H](O)c3cc(Br)c(OC)c(OC)c3)C=C[C@H]3C(=O)N(C4CCCCC4)C(=O)[C@H]32)cc1
pIC50 [9]: 4.18

O=C(CN(CCCNc1ccnc2cc(Cl)ccc12)C(=O)c1cnccn1)NC1CCCCC1
pIC50 (Plasmodium falciparum [10]): 6.27

O=C(NCc1ccc(Cl)c(Cl)c1)C1C(=O)Nc2sc3c(c2C(=O)N1Cc1ccc(Cl)cc1)CCCC3 (stereo not given)
pKi [2]: 4.35

N#CC1=C(N)Oc2ccc3ccccc3c2C1c1ccc([N+](=O)[O-])cc1 (stereo not given)
IC50 (MCF7): 8.9 µg/mL (≈ 25.9 µM)

CC/C(=C(\c1ccccc1)c1ccc(OCCN(C)C)cc1)c1ccccc1 [TAMOXIFEN]
IC50 (MCF7): 10 µg/mL (≈ 26.9 µM)

Cc1cc2c(c(=O)n1C)C(c1ccc(N(C)C)c(Br)c1)C(C#N)=C(N)O2 (stereo not given)
GI50 (HeLa): 330 nM

O=C1C(O)=C(c2ccccc2)C(c2ccc(Cl)cc2)N1Cc1ccc(Cl)cc1 (stereo not given)
pIC50 [11]: 4.91 | pKd [12]: < 3.70 | pIC50 [13]: 4.58

CC1CS(=O)(=O)CCN1/N=C/c1ccc([N+](=O)[O-])o1 (stereo not given) [NIFURTIMOX]
inhibition at 50 µM (Trypanosoma cruzi): 100%

CNC(=O)CC1S/C(=N\N=C(/C)c2ccc(Br)cc2)N(C)C1=O (stereo not given)
inhibition at 50 µM (Trypanosoma cruzi): 60%

CC(NCCCNc1ccnc2cc(Cl)ccc12)c1nc(Cc2ccccc2)c(N2CCOCC2)o1 (stereo not given)
Ratio IC50 (Plasmodium falciparum [5]): 21 | pIC50 (Plasmodium falciparum [4]): 8.42

CC(=O)O[C@H]1C(=O)[C@@]2(C)[C@H]([C@H](OC(=O)c3ccccc3)[C@]3(O)C[C@H](OC(=O)[C@H](O)[C@@H](NC(=O)c4ccccc4)c4ccccc4)C(C)=C1C3(C)C)[C@]1(OC(C)=O)CO[C@@H]1C[C@@H]2O [PACLITAXEL]
GI50 (PC-3; Homo sapiens, PC-3): 7.2 nM | GI50 (HT-29; Homo sapiens, HT-29): 5.3 nM

Cn1c(=O)c2c(c3ccccc31)OC(N)=C(C#N)C2c1cncc(Br)c1 (stereo not given)
GI50 (HeLa): 13 nM

O=C(CN(CCCNc1ccnc2cc(Cl)ccc12)C(=O)c1ccncc1)NC1CCCCC1
pIC50 (Plasmodium falciparum [10]): 6.21

CC[C@@H](C)[C@H](NC(=O)[C@H]1CCCCN1C)C(=O)N(COC(=O)CC(C)C)[C@H](C[C@@H](OC(C)=O)c1nc(C(=O)N[C@@H](Cc2ccc(O)cc2)C[C@H](C)C(=O)O)cs1)C(C)C [TUBULYSIN A]
GI50 (PC-3): 0.21 nM | GI50 (HT-29): 0.32 nM

O=C1NC(=O)[C@@H]2C=C[C@H]([C@H](O)C3CC=CCC3)N(Nc3ccc(Cl)cc3Cl)[C@H]12 (stereo not given in full)
pIC50 [9]: 4.17

Cc1ccc(S(=O)(=O)/N=C(\Nc2ccc(Cl)cc2)NC(C)(C)C)cc1
pKd [12]: < 4.00

COc1ccc(C2Nc3ccccc3C3CCCOC32)cc1 (stereo not given)
MIC [14]: 6.25 µM (≈ 1.85 µg/mL)
